Here are results for 29 compounds from ChEMBL document CHEMBL1201862, “PubChem BioAssay data set” (2004).

Assay in all cases: inhibition of tumour cell growth, NCI panel, 48 h
For test [1], the system named is KM-20L2.
The test system of test [2] is LXFL 529.
In test [3] the test system is ACHN.
In test [4] the test system is RXF 631.
Test [5] relates to Hs-578T.
Test [6] relates to DU-145.
Test [7] concerns BT-549.
Test [8] has as its system MDA-N.
The test system of test [9] is 786-0.

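Assay format: 96-well plates, 48-hour exposure. GI50 marks 50% less growth.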 The source made the active and inactive calls. No stated cut-off is given here; in the data, active = GI50 up to about 1.1 µM and inactive = higher. Some results are limits rather than exact numbers.

On to `O=C(NN1C(=O)C(Cl)C1c1cccc([N+](=O)[O-])c1)c1ccccc1O` (configuration not stated), for which the GI50 in [1] and in test [2] was > 100 µM (inactive) throughout.
Regarding `CCCCCCCCCCCCCCCCOCC(COP(=O)([O-])OCC[N+](C)(C)C)OCCCCCCCCCCCCCCCC` (configuration not stated), the GI50 in test [1] is > 100 µM (inactive).
As to `CC(=O)Nc1ccc(C2=N/C(=C\c3ccc(Cl)c(Cl)c3)C(=O)O2)cc1`, the GI50 in [3], in test [1], in test [4] and in test [2] was > 100 µM (inactive) in each case.
Turning to `Cc1ccc(S(=O)(=O)NNC2Oc3cc4c(cc3C(c3ccccc3O)C2C)OCO4)cc1` (configuration not stated), the GI50 in test [5] was 10.9 µM (inactive); in test [6], 13 µM (inactive); in test [3], 13.2 µM (inactive); in test [7], 13 µM (inactive); in test [8], 12.3 µM (inactive).
Take `Cn1c(=O)ccc2c(=O)c3ccccc3oc21`: the GI50 in [5], in [6], in test [3] and in test [8] was > 100 µM (inactive) in each case.
Take `CC(C)C1CN(C(=O)OCc2ccccc2)C2N1C(=O)C2(C)OCc1ccccc1` (configuration not stated): the GI50 was 33 µM (inactive) in test [3]; 49.3 µM (inactive) in test [9]; 43.9 µM (inactive) in [1]; 40.6 µM (inactive) in [4]; 28.7 µM (inactive) in test [2].
`COc1cc2c(c(OC)c1OC)-c1[nH]ncc1CC2`: the GI50 in [3], in test [9], in [1] and in test [2] was > 100 µM (inactive) throughout.
In the case of `O=C(/C=C/CC(O)(c1ccccc1)c1ccccc1)Nc1ccccc1Cl`, the GI50 in test [3], in test [1] and in test [2] was > 100 µM (inactive) throughout.
For the compound `NC(CCOCCP(=O)(O)CCC1C=CC=CC1)C(=O)O` (configuration not stated), the GI50 in test [5], in [6], in test [3], in test [7] and in [8] was > 100 µM (inactive) throughout.
For the compound `COc1ccccc1N1C(Cl)C(=O)C1c1c[nH]c2ccccc12` (configuration not stated), the GI50 in [1] and in test [2] was > 100 µM (inactive) throughout.
For `Cc1c2[nH]c3ccc(Br)cc3c2c(C)c2nccc(O)c12`, the values for the GI50 in [3] and in test [9] were 10.1 µM (inactive) and 11.1 µM (inactive), respectively.
Consider `C=C(CCCO)[C@@H]1CC[C@@](C)(O)[C@H]1C`, for which the GI50 in [3], in test [9], in test [1], in [4] and in [2] was > 100 µM (inactive) each time.
With `CC(C)(CCCCC(C)(C)NC1=NCCO1)NC1=NCCO1`, the GI50 in test [5], in test [6], in [3] and in [8] was > 10 µM (inactive) each time.
As to `O=C1C(=CNC(=S)c2ccccc2)C(=O)c2ccccc21`, the GI50 in test [5] was 54 µM (inactive); in [6], 57.8 µM (inactive); in test [3], 38.9 µM (inactive); in [9], 27.5 µM (inactive); in test [7], 28.1 µM (inactive); in test [8], 52.7 µM (inactive).
As to `COc1cc(/C=C2\C(=O)N(C(=O)Cc3ccccc3)N=C2C)cc(OC)c1OC`, the GI50 in test [3] and in test [9] was > 100 µM (inactive) throughout.
`O=C(CCC(=O)Nc1ccc(Cl)c(Cl)c1)CC(=O)c1ccc(Br)cc1`: the GI50 is 71.8 µM (inactive) in test [3]; > 100 µM (inactive) in test [9]; > 100 µM (inactive) in [1]; > 100 µM (inactive) in test [4]; 61.8 µM (inactive) in test [2].
`C=C1C(=O)OC2/C=C(\C)CC/C=C(/C)CC(OC(=O)/C(=C/CO)CO)C12` (configuration not stated): the GI50 in test [5] was 39.7 µM (inactive); in [6], 17.5 µM (inactive); in [3], 17.8 µM (inactive); in [9], 23.6 µM (inactive); in test [7], 14.3 µM (inactive); in [8], 20.5 µM (inactive).
As to `NC1C2C=CC(C2)C1C(=O)O` (configuration not stated), the GI50 in test [5], in test [6], in test [3], in test [9], in test [7] and in [8] was > 100 µM (inactive) each time.
Turning to `CC(=O)O[C@H]1[C@@H](OC(C)=O)C(C)(C)/C=C/[C@H](C)C(=O)[C@@]2(OC(C)=O)C[C@@](C)(OC(C)=O)[C@H](OC(C)=O)[C@@H]2[C@H]2OC(=O)CC[C@@]2(OC(=O)c2ccccc2)[C@@H]1OCC(C)C`, the GI50 in [5] was 11.2 µM (inactive); in test [6] it was 97.3 µM (inactive); in [3], 15.6 µM (inactive); in test [7] it was 67.6 µM (inactive); in [8] it was 7.11 µM (inactive).
In the case of `O=C1C=CC2(O[C@@H](Cc3ccccc3)[C@H](Cc3ccccc3)O2)C(SC(=O)c2ccccc2)C1` (some centres not stated), the GI50 in [5] is 1.38 µM (inactive); in [6], 2.39 µM (inactive); in test [3], 0.929 µM (active); in [9], 0.152 µM (active); in [7], 0.34 µM (active); in [8] it was 0.853 µM (active).
For the compound `CC(=O)NC1CC(C(C)(C)NC(C)=O)CC=C1C` (configuration not stated), the GI50 in test [6], in [9], in test [7] and in [8] was > 100 µM (inactive) in each case.
On to `O=C1N[C@@H]([C@H](CCCCCO)OC(=O)c2ccccc2)CO1`, for which the GI50 in [5], in test [6], in test [3], in test [9], in test [7] and in [8] was > 100 µM (inactive) each time.
As for `CC1(C)C(=O)/C=C\C(=O)C(C)(C)C2=CC=C(O2)C(C)(C)C(=O)C(Br)C(Br)C(=O)C(C)(C)C2=CC=C1O2` (configuration not stated), the GI50 in test [5] is 30.1 µM (inactive); in test [6], > 100 µM (inactive); in [3], > 46.5 µM (inactive); in [9], 39.6 µM (inactive); in test [7], 21.7 µM (inactive); in [1], > 100 µM (inactive). In addition, the results for the GI50 in [4], in test [8] and in test [2] were > 100 µM (inactive), > 45 µM (inactive) and 27.9 µM (inactive), respectively.
Turning to `COc1cc2c(cc1Oc1c(Oc3c(O)c(OC)cc4c3C(CC(C)C)N(C)CC4)c(OC)cc3c1C(CC(C)C)N(C)CC3)C(CC(C)C)N(C)CC2` (configuration not stated), the GI50 in test [1] is 0.698 µM (active).
Take `C=C1CC(OC)(C(O)C(=O)N[C@H]2OCO[C@H]3C2O[C@H](C[C@@H](CO)OC)C(C)(C)C3OC)O[C@H](C)[C@@H]1C` (some centres not stated): the GI50 in test [1] was < 0.00931 µM (active).
On the same count and under the same terms, to `O=C1C(=O)c2cc([N+](=O)[O-])ccc2-c2ccc([N+](=O)[O-])cc21` belongs 4.88 µM (inactive); to `Cn1c(=O)nc2n(-c3ccc(Cl)cc3Cl)c3ccccc3nc-2c1=O`, 0.861 µM (active); to `Nc1c(C(=O)Nc2ccc(C3=NCCN3)cc2)cccc1C(=O)Nc1ccc(C2=NCCN2)cc1`, > 100 µM (inactive).
Take `[C-]#[N+]C(=C\c1ccc(O)cc1)/C(=C/c1ccc(O)cc1)[N+]#[C-]` [XANTOCILLIN]: the GI50 was 0.718 µM (active) in test [5]; 2.53 µM (inactive) in test [6]; 2.03 µM (inactive) in [3]; 6.4 µM (inactive) in test [9]; 2.41 µM (inactive) in [7]; 1.47 µM (inactive) in [8].
